Assays:
[1] = system: fibrosis factors Fn-1 and Col-I, hydroxyproline; assay: Fibrosis factors (qPCR) and HYP content in lung tissue of silicosis mice; assay type: in vivo, mouse; details: OTX008 5 mg/kg i.p.
Text: (§1) Male C57BL/6J mice (aged 8 weeks and weighing 25-30 g) were selected and housed in an SPF grade laboratory animal room, and the model of silicosis was constructed by one-time intratracheal instillation of silica (Si); the mice were divided into four groups (n=9): • 1) PBS+vehicle group: tracheal infusion of PBS, intraperitoneal injection of vehicle (10% DMSO+90% corn oil) 2 weeks later, once every other day for 3 weeks; • 2) PBS+OTX008 group: PBS was given by tracheal infusion, and 2 weeks later, OTX008 (5 mg/kg) was given by intraperitoneal injection, once every other day for 3 weeks; • 3) Si+vehicle group: Silica suspension (300 mg/mL, 40 μL) was given tracheal infusion, and vehicle (10% DMSO+90% corn oil) was given intraperitoneal injection 2 weeks later, once every other day for 3 weeks; and • 4) Si+OTX008 group: Silica suspension (300 mg/mL, 40 μL) was given tracheal infusion, and OTX008 (5 mg/kg) was given intraperitoneal injection 2 weeks later, once every other day for 3 weeks.
(§2) All mice were sacrificed after the administration, and the corresponding samples were collected for detection.
(§3) Lung tissue RNA of all mice was extracted; cDNA was obtained by using a reverse transcription kit (KR103, Tiangen Biotechnology, Beijing, China); qPCR was conducted by using a SYBR Green I Q-PCR Kit (TransGen Biotech, Beijing China); data collection and analysis were conducted by Bio-Rad IQ5 system.
30 mg of mouse lung tissue was detected using an HYP kit (NBP2-59747, Novus Biologicals, Littleton, CO, USA).

Galectin-1 = Galectin-1 levels in silicosis mice (qPCR of lung tissue, ELISA of BALF); assay type: in vivo, mouse
Text: as §1, §2
(§4) Concentrations of inflammatory factors IL-1β and IL-6 as well as Galectin-1 in mouse BALF were detected by using ELISA kits.
as §3

silicosis mice [2] = assay: Pulmonary function test in silicosis mouse model; assay type: in vivo; details: OTX008 5 mg/kg i.p.
Text: as §1
Anesthetized mice were fixed on an experimental table, and mouse lung function was detected by a pulmonary function testing system (DSI Buxco, USA). Before experiment, the mouse was anesthetized by intraperitoneal injection of 0.4 mL/100 g 2% pentobarbital, tracheotomy was performed, a trachea cannula was inserted, and a ventilator was connected. Next, FRC, PV, FV, and RC were automatically tested by a PET system. Indicators closely related to lung function changes in silicosis for statistical analysis, including lung volume indicators such as IC, and pulmonary ventilation function tests such as RI, Cdyn, and Cchord.

silicosis mice [3] = assay: Pathological staining (HE, Masson) of lung tissue of silicosis mice; assay type: in vivo, mouse; details: OTX008 5 mg/kg i.p.
Text: as §1
The left lung was fixed in 4% paraformaldehyde for 72 h, dehydrated, paraffin-embedded, sectioned (to 5 μm), and subjected to HE staining and Masson staining, respectively. The HE staining was conducted to calculate the inflammation score based on Szapiel's score. The scoring method included no inflammation (grade 0), mild (grade 1), moderate (grade 2), and severe (grade 3); Masson staining was conducted to evaluate the degree of fibrosis based on the King score. Specifically, different silicosis nodules were evaluated for fibrosis degree according to King's method, with levels ranging from 0 to 5. Each silicosis nodule was assigned a corresponding fibrosis damage score, which was calculated as the fibrosis level score (0-5) multiplied by its percentage of the total area of the tissue section. The sections were scanned, photographed and counted by a 3D HISTECH digital slide scanner.

[4] = system: inflammatory factors IL-1β and IL-6; assay: Inflammatory factors in silicosis mice (qPCR of lung tissue, ELISA of BALF); assay type: in vivo, mouse; details: OTX008 5 mg/kg i.p.
Text: as §1, §2, §4, §3

SMILES: CN(C)CCNC(=O)COc1c2cccc1Cc1cccc(c1OCC(=O)NCCN(C)C)Cc1cccc(c1OCC(=O)NCCN(C)C)Cc1cccc(c1OCC(=O)NCCN(C)C)C2 [OTX008]
- collagen-specific amino acid HYP in lung tissue ([1]; HYP kit, FIG. 6C): decreased
- transcription level of Col-I in lung tissue ([1]; qPCR, FIG. 6A): decreased
- transcription level of Fn-1 in lung tissue ([1]; qPCR, FIG. 6B): decreased
- Galectin-1 translation level in alveolar lavage fluid (Galectin-1; OTX008 5 mg/kg i.p., ELISA): decreased
- Lgals1 transcription level in lung tissue (Galectin-1; OTX008 5 mg/kg i.p., qPCR): decreased
- levels of Galectin-1 (transcription and translation) (Galectin-1; OTX008 5 mg/kg intraperitoneal, once every other day for 3 weeks): effectively inhibited
- lung function: inspiratory capacity (IC) (silicosis mice [2]; FIG. 3A): improved significantly
- lung function: inspiratory resistance (RI) (silicosis mice [2]; FIG. 3B): improved significantly
- lung function: dynamic compliance (Cdyn) (silicosis mice [2]; FIG. 3C): improved significantly
- lung function: quasi-static compliance (Cchord) (silicosis mice [2]; FIG. 3D): improved significantly
- progression of pulmonary fibrosis (silicosis mice [3]): effectively alleviate
- fibrosis lesions (Masson staining) (silicosis mice [3]; FIGS. 7A-7D): reduced
- inflammatory infiltration in the lungs (silicosis mice [3]; HE staining): reduced
- degree of the disease (lesions) (silicosis mice [3]; Masson staining): alleviated
- concentration of IL-1β in alveolar lavage fluid ([4]; ELISA, FIG. 4C): decreased
- concentration of IL-6 in alveolar lavage fluid ([4]; ELISA, FIG. 4D): decreased
- transcription level of Il-1β in lung tissue ([4]; qPCR, FIG. 4A): decreased
- transcription level of Il-6 in lung tissue ([4]; qPCR, FIG. 4B): decreased
